Structures are written as SMILES.

One molecule from US20210284621A1 (priority 2018, published 2021) can be followed below.

The test system of this assay is LPS-induced PBMCs. The experiment in a line: Inflammatory cytokine release from LPS-induced PBMCs (Luminex). Type of assay: cell-based, human. The following applies: fold change from LPS-treated PBMCs, compounds 10 μM (DEX 1 μg/ml) 2 h, then LPS 0.1 μg/ml 24 h, negative = reduced. The essentials:
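Human PBMCs from healthy donors pretreated 2 hours with compound at 10 μM (triplicate), then stimulated with 0.1 μg/ml LPS for 24 hours. Supernatant cytokines measured by magnetic Luminex; values given as fold change versus LPS-treated PBMCs, negative meaning reduction; cytotoxicity also assessed.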

Setting [1] is: OOR = out of standard curve range.

Regarding `CCCCCCC(C)(C)c1cc(O)c2c(c1)OC(C)(C)[C@@H]1CC=C(C(=O)NC(C)(C)CCO)C[C@@H]21` [Compound 15, (6aR,10aR)-1-Hydroxy-N-(4-hydroxy-2-methylbutan-2-yl)-6,6-dimethyl-3-(2-methyloctan-2-yl)-6a,7,10,10a-tetrahydro-6H-benzo[c]chromene-9-carboxamide], the IL17A is recorded as −3.1 fold change, the IL-1β is −5.9 fold change, the IL-4 is given as −2.7 fold change and the IL-6 is given as −107.7 fold change. This molecule gave an IL-8 of −2.4 fold change, an IL-10 of −299.9 fold change, an MCP-1 of −213.2 fold change and a TNFα of −75.9 fold change. Besides, under setting [1], the “IL-12 (p70)” value is listed as “OOR” and the L-31 result was “OOR”.
